“Also recorded” adds a separate entry of the source. Read-outs that look alike come from different tables or passages of the source.
Key:
platelet aggregation = conditions: cited from earlier work
NMDA receptor [1] = conditions: in vivo; cited from earlier work
[2] = target: T1, peripheral-type BZ receptors (Rattus norvegicus, UniProt P16257); assay: Competitive binding assay, displacement of 3H-Ro5-4864 in brain homogenates
T1 construct: displacement of ^3 H-RO5-4864 in brain homogenates; from tissue; host or cells: brain homogenates
Source text: Sprengel, R., et al., "Molecular cloning and expression of cDNA encoding a peripheral-type benzodiazepine receptor," J. Biol. Chem., 264:20415-20421 (1989).
Some of these compounds were further tested in in vivo studies.

[3] = Physical trauma (head injury) model, grip score 18 hours post-injury; type: in vivo, mice (male CF-1); conditions: for effectiveness in treatment of CNS trauma/damage (in words): grip score 18 h post trauma, FIGS. 1-8
Source text: Two tests which can be readily performed are observation of grip score and observation of grip time in injured test animals. Another test for agonist activity is for decrease in mortality caused by the CNS injury. Mice can be treated to simulate CNS injury by a variety of methods: they can be deprived of oxygen by administration of KCN (Nauquier, A., et al., Arch. Int. Pharmacodyn., 249:330 (1981)) or by temporary tying-off of the carotid artery (Braughler, J. M. and Lainer, M. J., "The effects of large doses of methylprednisolone on neurologic recovery and survival in the Mongolian gerbil following three hours of unilateral carotid occlusion," CNS Trauma, 3:153-162 (1986)). Alternatively, blows can be administered to the head or the spinal cord of the test animal.
The following protocol was used:
The compound to be tested was weighed and suspended in a polyethylated castor oil solution ("Cremophore") (21% Cremaphore, 3% ethanol in 0.9% saline). The concentration of the solution was then adjusted for administration at a dose of 0.01 cc/gm body weight. For example, for a dose of 10 mg/Kg, the solution was made 1.0 mg/cc, and a 23 g mouse would receive 0.23 cc of this solution. The solution was sonicated for approximately 90 minutes, or until the compound is dissolved.
Male CF-1 mice (15-25 gm) were weighed and marked for identification purposes. Each individual mouse was restrained by grasping the dorsal skin of the neck until the mouse was still. An impounder was used to administer the trauma. The impounder consists of a weight suspended over the animal's head at a height sufficient to produce significant injury when dropped, and a means for immobilizing the animal (in this case, room to hold the animal in place). […] 62:882-887, 883. The mouse was positioned properly under the impounder, and the weight was released from its preset height (11 CM).
Immediately following injury, the mouse was placed under a heat lamp. At various times after injury, the drug was administered intravenously at the specified dose. The time of injury and the time of injection were recorded.
B) Measurement of Grip Score
Each mouse was evaluated 18 hours post-injury for neurological deficit. The delay of 18 hours provided time for any sedative effects of the compound to wear off. It also provided time for healing to occur. Mortality was also noted. A standard grip test, as described in Hall et al., J. Neurosurg. 68:456-461 (1988), was used. The apparatus consisted of a taut string suspended between two uprights, 60 cm in length and 40 cm above a padded table.
(§1) Each mouse was picked up by the tail and placed on the string. […] The tail was then released. Grip score was recorded based on the mouse's performance while on the string. The following criteria were used (taken from Hall, E. D., J. Neurosurg. 62:882-887 (1985)):
C) Statistical Analysis Results of the above test were analyzed for statistical significance using the Mann-Whitney U test. See R. V. Tallarida & R. B. Murray, MANUAL OF PHARMACOLOGIC CALCULATIONS WITH COMPUTER PROGRAMS, Springer-Verlag, N.Y., pp. 57-59 (1981). This test was used to compare each set of grip scores for a particular dose of a particular compound against the grip scores for the control group.

NMDA receptor [4] = conditions: cats; cited from earlier work
[5] = test system: peripheral-type BZ receptor; assay: Antagonism of Ro5 4864-induced improvement of grip score by PK 14105 following head injury; type: in vivo, mice; conditions: for GRIP TEST SCORE: tested 1 hour after injury
Source text: Male CF-1 mice (15-25 gm) were weighed and marked for identification purposes. Each individual mouse was restrained by grasping the dorsal skin of the neck until the mouse was still. An impounder was used to administer the trauma. The impounder consists of a weight suspended over the animal's head at a height sufficient to produce significant injury when dropped, and a means for immobilizing the animal (in this case, room to hold the animal in place). An example of such an impounder can be found in Hall, E.D., "High Dose Glucocorticoid Treatment Improves Neurological Recovery in Head Injured Mice," J. Neurosurg. 62:882-887, 883. The mouse was positioned properly under the impounder, and the weight was released from its preset height (11 CM).
as §1
The inhibitory agonist alone does (row 2 as compared to row 1).
^a Animals were administered vehicle or PK 14105 i.v. 30 min prior to
^b Animals were administered vehicle or Ro5 4864 i.v. 5 min after hea
^c Animals were tested 1 hour after headinjury

[6] = target: T1, peripheral-type BZ receptors; conditions: # data from Wang et al., Mol. Pharmacol. 25:349-351 (1984); cited from earlier work
[7] = Physical trauma (head injury) model, grip score 18 hours post-injury; type: in vivo, mice (male CF-1); conditions: by extrapolation from Table 3 binding data
[8] = stroke treatment; cited from earlier work
[9] = in vivo; cited from earlier work

CC(=O)Oc1ccccc1C(=O)O [Aspirin]
effect on platelet aggregation (platelet aggregation): inhibit platelet aggregation

O=C(O)C1CN(CCCP(=O)(O)O)CCN1 (centres unmarked) [CPP]
adverse reactions (NMDA receptor [1]): respiratory depression and elevated CO2 level

O=C1CN=C(c2ccccc2Cl)c2cc([N+](=O)[O-])ccc2N1 [Clonazepam]
IC50 [2]: 9180 nM | effectiveness in treatment of CNS trauma/damage (in words) [3]: inactive in the treatment of CNS damage

O=C(O)[C@H]1CN(C/C=C/P(=O)(O)O)CCN1 [D-CPPene]
effect on blood pressure (NMDA receptor [4]): induces hypotension

CCC(C)N(C)C(=O)c1cc2ccccc2c(-c2cc([N+](=O)[O-])ccc2F)n1 (centres unmarked) [PK 14105, 1-(2-fluoro-5-nitrophenyl)-1-methyl-N(1-methyl-propyl)-3-isoquinoline carboxamide]
binding affinity to peripheral-type BZ sites (in words) [2]: very strong binding affinity | IC50 ([2]; displacement of 3H-Ro5-4864 in brain homogenates, * data by procedure described herein, read-out: IC50): 4.5 nM | effectiveness in treatment of CNS trauma/damage (in words) [3]: inactive in treating CNS damage | functional class at the peripheral-type BZ receptor (in words) ([3]; inferred from binding and lack of grip score effect): antagonist to the peripheral-type BZ receptor | grip scores compared with controls (in words) ([3]; moderate and high doses, FIG. 8): stay the same as those of the controls | GRIP TEST SCORE ([5]; 10 mg/kg i.v. 30 min preinjury, postinjury vehicle): 1.40 ± 0.28 | effect of the antagonist on grip score (in words) ([5]; antagonist alone): no statistically significant effect on grip score post trauma | effect on agonist-induced improvement of grip score (in words) ([5]; antagonist with inhibitory agonist, 1 hour post-trauma): prevents the agonist from improving grip score

CN1C(=O)CN=C(c2ccccc2Cl)c2cc(Cl)ccc21 [Ro5-3448, 2',7-Dichloro-1,3-dihydro-1-methyl-5-phenyl-2H-1,4-benzodiazepin-2-one]
IC50 [6]: 35.2 nM | effectiveness for treatment of CNS trauma or disease (in words) [7]: effective

CN1C(=O)CN=C(c2ccccc2)c2ccccc21 [Ro5-3464, 1,3-Dihydro-1-methyl-5-phenyl-2H-1,4-benzodiazepin-2-one]
IC50 [2]: 1230 nM | binding affinity to peripheral-type BZ sites (in words) [2]: very high IC50 values | effectiveness in treatment of CNS trauma/damage (in words) [3]: non-effective; also recorded: inactive in the treatment of CNS damage

CN1C(=O)CN=C(c2ccccc2Cl)c2ccccc21 [Ro5-4608, 2'-Chloro-1,3-dihydro-1-methyl-5-phenyl-2H-1,4-benzodiazepin-2-one]
IC50 [6]: 215 nM

CN1C(=O)CN=C(c2ccc(Cl)cc2)c2cc(Cl)ccc21 [Ro5-4864, 4',7-Dichloro-1,3-dihydro-1-methyl-5-phenyl-2H-1,4-benzodiazepin-2-one]
effectiveness in treatment of CNS trauma/damage (in words) [3]: effective | GRIP TEST SCORE ([5]; preinjury 10 mg/kg PK 14104 (sic) plus postinjury 0.3 mg/kg Ro5 4864): 0.93 ± 0.21 | GRIP TEST SCORE ([5]; preinjury vehicle, 0.3 mg/kg i.v. 5 min after injury, vehicle/vehicle 1.13 ± 0.27, P<0.05): 1.84 ± 0.24

CN1C(=O)CN=C(c2ccc(Cl)cc2)c2ccccc21 [Ro5-5115, 4'-Chloro-1,3-dihydro-1-methyl-5-phenyl-2H-1,4-benzodiazepin-2-one]
IC50 [6]: 106 nM

CN1C(=O)CN=C(c2ccc(F)cc2)c2ccccc21 [Ro5-5122, 4'-Fluoro-1,3-dihydro-1-methyl-5-phenyl-2H-1,4-benzodiazepin-2-one]
IC50 [6]: 442 nM

CN1C(=O)CN=C(c2ccc(Cl)cc2)c2cc(F)ccc21 [Ro5-6524, 4'-Chloro-7-fluoro-1,3-dihydro-1-methyl-5-phenyl-2H-1,4-benzodiazepin-2-one]
IC50 [6]: 340 nM

CN1C(=O)CN=C(c2ccc(Cl)cc2)c2cc(F)ccc21 [Ro5-6531, 4'-Chloro-7-fluoro-1,3-dihydro-1-methyl-5-phenyl-2H-1,4-benzodiazepin-2-one]
IC50 ([2]; displacement of 3H-Ro5-4864 in brain homogenates, * data by procedure described herein): 33.4 nM | effectiveness in treatment of CNS trauma/damage (in words) [3]: effective

COc1ccc(C2=NCC(=O)N(C)c3ccc(Cl)cc32)cc1 [Ro5-6669, 7-Chloro-1,3-dihydro-4'-methoxy-1-methyl-5-phenyl-2H-1,4-benzodiazepin-2-one]
IC50 [6]: 18.7 nM | effectiveness for treatment of CNS trauma or disease (in words) [7]: effective

CN1C(=O)CN=C(c2ccc(Cl)cc2Cl)c2cc(Cl)ccc21 [Ro5-6900, 2',4',7-Trichloro-1,3-dihydro-1-methyl-5-phenyl-2H-1,4-benzodiazepin-2-one]
IC50 [6]: 10 nM | effectiveness for treatment of CNS trauma or disease (in words) [7]: effective

CN1C(=O)CN=C(c2ccc(Cl)cc2Cl)c2cc(Cl)ccc21 [Ro5-6902, 4',6',7-Trichloro-1,3-dihydro-1-methyl-5-phenyl-2H-1,4-benzodiazepin-2-one]
IC50 [6]: 23.4 nM | effectiveness for treatment of CNS trauma or disease (in words) [7]: effective

C=CCN1C(=O)CN=C(c2ccc(Cl)cc2)c2cc(Cl)ccc21 [Ro5-6945, 1-Allyl-4',7-dichloro-1,3-dihydro-5-phenyl-2H-1,4-benzodiazepin-2-one]
IC50 [6]: 14.3 nM | effectiveness for treatment of CNS trauma or disease (in words) [7]: effective

CCN1C(=O)CN=C(c2ccc(Cl)cc2)c2cc(Cl)ccc21 [Ro5-6993, 4',7-Dichloro-1-ethyl-1,3-dihydro-5-phenyl-2H-1,4-benzodiazepin-2-one]
IC50 [6]: 6.1 nM | effectiveness for treatment of CNS trauma or disease (in words) [7]: effective

CN1C(=O)CN=C(c2c(Cl)cccc2Cl)c2cc(Cl)ccc21 [Ro7-5520, 2',6',7-Trichloro-1,3-dihydro-1-methyl-5-phenyl-2H-1,4-benzodiazepin-2-one]
IC50 [6]: 93.1 nM

CC(C)(C)OC(=O)c1ncn2c1[C@@H]1CCCN1C(=O)c1c(Br)cccc1-2 [Rol6-6028]
IC50 [2]: > 10000 nM | effectiveness in treatment of CNS trauma/damage (in words) [3]: inactive in the treatment of CNS damage

C[C@]12CCC(=O)C=C1CC[C@@H]1[C@@H]2C(=O)C[C@@]2(C)[C@H]1CC[C@]2(O)C(=O)CO [cortisone]
effect on neurologic outcome, morbidity or mortality in stroke [8]: no difference in morbidity or mortality

C[C@@H]1C[C@H]2[C@@H]3CCC4=CC(=O)C=C[C@]4(C)[C@@]3(F)[C@@H](O)C[C@]2(C)[C@@]1(O)C(=O)CO [dexamethasone]
effect on neurologic outcome, morbidity or mortality in stroke [8]: no difference in morbidity or mortality | adverse effects [9]: serious exacerbations of diabetes mellitus

OC[C@@H](O)[C@@H](O)[C@H](O)[C@H](O)CO [mannitol]
adverse effects [9]: severe rebound cerebral edema

O=C1C(CC[S+]([O-])c2ccccc2)C(=O)N(c2ccccc2)N1c1ccccc1 (centres unmarked) [sulfinpyrazone]
effect on platelet aggregation (platelet aggregation): inhibit platelet aggregation

Clc1ccccc1CN1CCc2sccc2C1 [ticlopidine]
effect on platelet aggregation (platelet aggregation): inhibit platelet aggregation

heparin
adverse effects [9]: high risk of brain and/or systemic hemorrhage
